In PMC10895678 (Journal of Medicinal Chemistry, 2024):
Values joined by “and” are separate entries in the source; they are usually repeats but may differ in a detail not shown here. Identical values can stand only once. Like-named read-outs stand apart in the source and are kept apart here.

Tests used:
[1] = Mouse PK, multiple oral dosing of single compounds; assay type: in vivo, KM mice; conditions: for CL/F: read-out: CLz/F (converted); for MRT last: read-out: MRT(0-t); for MRT inf: read-out: MRT(0-∞); for Vd/F: read-out: Vz/F; for k el: read-out: λz (converted)
From the text: Methods for combined single dosing (BGAz001–005) and dosing of single compounds multiple times (BGAz004 and BGAz005) are described in detail in the Supporting Information (PK Data).
Report on PK results of BGAz-004 by multiple oral dosing
7 Materials and instrument combined dosing
An MS2 Turnover type oscillator was purchased from IKA Work’s Guangzhou (China), and a 5415R ChromatographicanalyseswereconductedusinganAgilent1290InfinityIIhighperformanceliquidchromatography andAgilentTechnologies6470TripleQuadLC/MS.Propranolol(≥90%inpurity,internalstandard,IS)waspurchased fromtheSigmaChemicalCo.(China).Formicacid(HPLCgrade)andmethanol(HPLCgrade)werepurchasedfrom DIKMACo.(China).Allchemicalsandsolventswereanalyticalgrade.WaterwaspurifiedusingaMillipore(AK,USA) laboratoryultra-purewatersystem(0.2μmfilter).
KMmice,weighing25–35g(BeijingVitalRiverLaboratoryAnimalTechnologyCo.,Ltd.,China)wereutilisedforthe studies.The protocols were approved by the Animal Care and Use Committee, GIBH. Animals were maintained on standard animal chow and waterad libitum, in a climate-controlled room (23±1 °C 30–70% relative humidity, a minimumof tenexchangesof roomairperhouranda12hlight/darkcycle)foroneweekpriortoexperiments.
9 Pharmacokinetic studies
Compound BGAz-004 were dissolved in the solution containing DMSO (2%), ethanol (4%), Cremophor EL (4%) and ddH2O (90%).The mice were given solution with 30 mg/kg bygastric gavagefor 3 days.Whole blood samples (100μL)wereobtainedfromtheorbitalvenousplexusatthefollowingtimepointsafterthethirddaydosing:5,15,30 min and 1, 3, 5, 8, 24 hour. Whole blood samples were collected in heparinised tubes. The plasma fraction was immediately separated by centrifugation. The mice were humanely euthanasia by carbon dioxide 24 hours after […]
10 Plasma sample analysis
10.1 Standard curve sample preparation
ThecompoundsweredissolvedinDMSO(2mg/mL)anddilutedwithtoseriesconcentration(methanol:H 2O,1:1,10 μL) and blank plasma (50 μL) were added to 1.5 mL tubes and vortexed for 3 min, then acetonitrile-containing internalstandard(150μL)wasaddedandvortexedforafurther5min,andsubsequentlyspuninacentrifugeat13000 […]
10.2 Plasma and preparation
Plasmasampleswerepreparedusingaproteinprecipitationmethod.Solution(10μL,methanolH 2O,1:1)andplasma samples(50μL)wereaddedto1.5mLtubesandvortexfor3min,thenacetonitrile-containinginternalstandard(150 μL)wasaddedandvortexfor5min,andsubsequentlyspuninacentrifugeat13000× gfor40minat4°C.
Aftercentrifugation,supernatant(100μL)wastransferto96wellplatesandanalysedbyLC-MS/MSusinganAgilent 1290InfinityIIHPLCandanAgilentTechnologies6470TripleQuadLC/MS.
Report on PK results of BGAz-005 by multiple oral dosing
13 Materials and instrument combined dosing […]
fromtheSigmaChemicalCo.(China).Formicacid(HPLCgrade)andmethanol(HPLCgrade)werepurchased from […]
15 Pharmacokinetic studies
Compound BGAz-005 were dissolved in the solution containing DMSO (2%), ethanol (4%), Cremophor EL (4%) […]
16 Plasma sample analysis
16.1 Standard curve sample preparation
16.2 Plasma and preparation

[2] = test system: M. tuberculosis H37Rv; test: Mycobacterial time kill experiments (total viable counts); assay type: cell-based, Mycobacterium tuberculosis; conditions: 96 μM
[3] = test system: BCG pTIC6-fbpA; assay type: cell-based, Mycobacterium bovis BCG
[4] = test system: M. smegmatis; test: Inhibition of macromolecular synthesis (radiolabeled precursor incorporation); assay type: cell-based, Mycobacterium smegmatis
Procedure: Inhibition of macromolecular biosynthesis was assayed by measuring the incorporation of radiolabeled precursors into DNA, RNA, protein, peptidoglycan, and fatty acids in the 10% trichloroacetic acid (TCA) extracts of cells exposed to azetidines. M. smegmatis were cultured in 7H9 media supplemented with 0.05% Tween-80 and grown to an OD600 of 0.4. Cultures (5 mL) were then transferred into sterile glass tubes and preincubated with 0× , 0.5× , 0.75× and 1 × MIC99 azetidines for 1 h at 37 °C with shaking. After preincubation, 10 μL of 500 nCi/μL [methyl-^3H]thymidine, 500 nCi/μL [5,6-^3H]uridine, 500 nCi/μL L-[4,5-^3H]leucine, 500 nCi/μL [^3H]meso-diaminopimelic acid, and 500 nCi/μL [^14C]acetic acid were added to cultures to measure synthesis of DNA, RNA, protein, peptidoglycan and lipids, respectively. All cultures were incubated for 36 h, and 100 μL samples were sacrificed at 6, 12, 24, and 36 h time points by the addition of 50 μL 30%TCA/70% ethanol in Eppendorf tubes. Tubes were incubated at room temperature for 60 min to allow for precipitation of macromolecular material. Samples were individually vacuum filtered using 0.025 μm membrane filters (VSWP01300, MF-Millipore) that were prewashed with 500 μL 70% ethanol. Samples were washed with 3 × 500 μL 5% TCA, followed by 2 × 95% ethanol. Filter papers were dried and combined with 5 mL of scintillation fluid before measuring radioactive counts.

[5] = KM, mouse, plasma, multiple PO 30 mg/kg, times 4, mean of animals
[6] = multiple PO 30 mg/kg, times 4, mean of animals
[7] = KM, mouse, plasma, multiple PO 30 mg/kg, times 3, mean of animals
[8] = multiple PO 30 mg/kg, times 3, mean of animals

Brc1cc(Br)cc(C2CC(CN3CCCC3)N2Cc2ccccc2Br)c1 (stereo not drawn) [BGAz-004]
AUC(0-inf) ([1]; KM, mouse, plasma, po, 30 mg/kg, multiple PO 30 mg/kg, times 4, mean of animals, read-out: AUC(0-∞)): 5420 ng·h/mL
Cmax ([1]; KM, mouse, plasma, po, 30 mg/kg, multiple PO 30 mg/kg, times 4, mean of animals, read-out: Cmax): 364 ng/mL
Tmax ([1]; KM, mouse, plasma, po, 30 mg/kg, multiple PO 30 mg/kg, times 4, mean of animals, read-out: Tmax): 60 min
half-life ([1]; KM, mouse, plasma, po, 30 mg/kg, multiple PO 30 mg/kg, times 4, mean of animals, read-out: t1/2z (converted)): 0.336 days
AUC(0-inf) ([1]; KM, mouse, plasma, po, 30 mg/kg, multiple PO, times 4, 30 mg/kg, summary table, read-out: AUC(0-∞)): 5420 ng·h/mL
Cmax ([1]; KM, mouse, plasma, po, 30 mg/kg, multiple PO, times 4, 30 mg/kg, summary table, read-out: Cmax): 364 ng/mL
half-life ([1]; KM, mouse, plasma, po, 30 mg/kg, multiple PO, times 4, 30 mg/kg, summary table, read-out: T1/2 (converted)): 0.336 days
Tmax ([1]; KM, mouse, plasma, po, 30 mg/kg, multiple PO, times 4, 30 mg/kg, summary table, read-out: Tmax): 60 min
AUC(0-inf) ([1]; KM, mouse, plasma, po, 30 mg/kg, multiple daily dosing 4 × 30 mg/kg PO, read-out: AUC0-inf): 5420 ng·h/mL
Cmax ([1]; KM, mouse, plasma, po, 30 mg/kg, multiple daily dosing 4 × 30 mg/kg PO, read-out: Cmax (Mouse, P.O.)): 363 ng/mL
half-life ([1]; KM, mouse, plasma, po, 30 mg/kg, multiple daily dosing 4 × 30 mg/kg PO, read-out: T1/2 (Mouse, P.O.) (converted)): 0.338 days
Tmax ([1]; KM, mouse, plasma, po, 30 mg/kg, multiple daily dosing 4 × 30 mg/kg PO, read-out: Tmax (Mouse, P.O.)): 60 min
concentration at 0.083 h ([1]; KM, mouse, plasma, multiple PO 30 mg/kg, times 4, 0.083 h): 214 nM and 115 ng/mL
concentration at 0.25 h ([1]; KM, mouse, plasma, multiple PO 30 mg/kg, times 4, 0.25 h): 361 nM and 195 ng/mL
concentration at 0.5 h ([1]; KM, mouse, plasma, multiple PO 30 mg/kg, times 4, 0.5 h): 590 nM and 319 ng/mL
concentration at 1 h ([1]; KM, mouse, plasma, multiple PO 30 mg/kg, times 4, 1 h): 674 nM and 364 ng/mL
concentration at 3 h ([1]; KM, mouse, plasma, multiple PO 30 mg/kg, times 4, 3 h): 594 nM and 321 ng/mL
concentration at 5 h ([1]; KM, mouse, plasma, multiple PO 30 mg/kg, times 4, 5 h): 268 ng/mL and 496 nM
concentration at 8 h ([1]; KM, mouse, plasma, multiple PO 30 mg/kg, times 4, 8 h): 243 ng/mL and 450 nM
concentration at 24 h ([1]; KM, mouse, plasma, multiple PO 30 mg/kg, times 4, 24 h): 63.7 ng/mL and 118 nM
AUC(0-t) [1, 5]: 4760 ng·h/mL
CL/F [1, 5]: 95.4 mL/min/kg
MRT last [1, 5]: 7.85 h
MRT inf [1, 5]: 11.7 h
Vd/F [1, 5]: 67.5 L/kg
k el [1, 5]: 2.89e-05 s⁻¹
AUMC(0-t) [1, 6]: 36514.994 h*h*μg
AUMC(0-∞) [1, 6]: 62413.77 h*h*μg
C_last [1, 6]: 46.151 µg
R_AUC(t/∞) [1, 6]: 87.55%
VRT(0-t) [1, 6]: 41.471 h^2
VRT(0-∞) [1, 6]: 162.525 h^2
T1/2 (Mouse, P.O.) ([1]; multiple daily dosing 4 × 30 mg/kg PO, 30 mg/kg): 8.07 h
reduction of total viable count ([2]; after 6 days of exposure): 0.79 ± 2.20 log10 CFU mL^–1
reduction of total viable count ([2]; after 14 days' exposure): 1.90 ± 1.28 log10 CFU mL^–1
BCG pTIC6-fbpA MIC [3]: 20 µM

CNCC1CC(c2ccc(OC(F)(F)F)cc2)N1Cc1ccccc1OC(F)(F)F (stereo not drawn) [BGAz-005]
half-life ([1]; KM, mouse, plasma, oral, 30 mg/kg, mice, read-out: blood plasma half-life): > 3 days
AUC(0-inf) ([1]; KM, mouse, plasma, po, 30 mg/kg, multiple PO 30 mg/kg, times 3, mean of animals, read-out: AUC(0-∞)): 82200 ng·h/mL
Cmax ([1]; KM, mouse, plasma, po, 30 mg/kg, multiple PO 30 mg/kg, times 3, mean of animals, read-out: Cmax): 1710 ng/mL
Tmax ([1]; KM, mouse, plasma, po, 30 mg/kg, multiple PO 30 mg/kg, times 3, mean of animals, read-out: Tmax): 52.5 min
half-life ([1]; KM, mouse, plasma, po, 30 mg/kg, multiple PO 30 mg/kg, times 3, mean of animals, read-out: t1/2z (converted)): 3.35 days
AUC(0-inf) ([1]; KM, mouse, plasma, po, 30 mg/kg, multiple PO, times 3, 30 mg/kg, summary table, read-out: AUC(0-∞)): 82200 ng·h/mL
Cmax ([1]; KM, mouse, plasma, po, 30 mg/kg, multiple PO, times 3, 30 mg/kg, summary table, read-out: Cmax): 1710 ng/mL
half-life ([1]; KM, mouse, plasma, po, 30 mg/kg, multiple PO, times 3, 30 mg/kg, summary table, read-out: T1/2 (converted)): 3.35 days
Tmax ([1]; KM, mouse, plasma, po, 30 mg/kg, multiple PO, times 3, 30 mg/kg, summary table, read-out: Tmax): 52.5 min
AUC(0-inf) ([1]; KM, mouse, plasma, po, 30 mg/kg, multiple daily dosing 3 × 30 mg/kg PO, read-out: AUC0-inf): 82200 ng·h/mL
Cmax ([1]; KM, mouse, plasma, po, 30 mg/kg, multiple daily dosing 3 × 30 mg/kg PO, read-out: Cmax (Mouse, P.O.)): 1710 ng/mL
half-life ([1]; KM, mouse, plasma, po, 30 mg/kg, multiple daily dosing 3 × 30 mg/kg PO, read-out: T1/2 (Mouse, P.O.) (converted)): 3.35 days
Tmax ([1]; KM, mouse, plasma, po, 30 mg/kg, multiple daily dosing 3 × 30 mg/kg PO, read-out: Tmax (Mouse, P.O.)): 52.2 min
concentration at 0.083 h ([1]; KM, mouse, plasma, multiple PO 30 mg/kg, times 3, 0.083 h): 1.97 µM and 858 ng/mL
concentration at 0.25 h ([1]; KM, mouse, plasma, multiple PO 30 mg/kg, times 3, 0.25 h): 2.69 µM and 1170 ng/mL
concentration at 0.5 h ([1]; KM, mouse, plasma, multiple PO 30 mg/kg, times 3, 0.5 h): 3.53 µM and 1540 ng/mL
concentration at 1 h ([1]; KM, mouse, plasma, multiple PO 30 mg/kg, times 3, 1 h): 3.75 µM and 1630 ng/mL
concentration at 3 h ([1]; KM, mouse, plasma, multiple PO 30 mg/kg, times 3, 3 h): 1.96 µM and 855 ng/mL
concentration at 5 h ([1]; KM, mouse, plasma, multiple PO 30 mg/kg, times 3, 5 h): 714 ng/mL and 1.64 µM
concentration at 8 h ([1]; KM, mouse, plasma, multiple PO 30 mg/kg, times 3, 8 h): 608 ng/mL and 1.4 µM
concentration at 24 h ([1]; KM, mouse, plasma, multiple PO 30 mg/kg, times 3, 24 h): 570 ng/mL and 1.31 µM
AUC [1, 7]: 16800 ng·h/mL
AUC(0-t) [1, 7]: 16800 ng·h/mL
CL/F [1, 7]: 13.1 mL/min/kg
MRT last [1, 7]: 10.3 h
MRT inf [1, 7]: 116 h
Vd/F [1, 7]: 34.4 L/kg
k el [1, 7]: 1.42e-05 s⁻¹
AUMC(0-t) [1, 8]: 172065.476 h*h*μg/L
AUMC(0-∞) [1, 8]: 21124940.36 h*h*μg/L
C_last [1, 8]: 394.2 µg/L
Cav [1, 8]: 699.901 µg/L
DF [1, 8]: 2.398
R_AUC(t/∞) [1, 8]: 45.975%
VRT(0-t) [1, 8]: 76.208 h^2
VRT(0-∞) [1, 8]: 32368.115 h^2
reduction of total viable count ([2]; after 6 days of exposure): 3.28 ± 1.00 log10 CFU mL^–1
loss of lipid biosynthesis ([14C]-acetic acid incorporation) ([4]; 0.5 × MIC): ~50%
loss of lipid biosynthesis ([14C]-acetic acid incorporation) ([4]; 1 × MIC): ~75%
reduction of incorporation of [3H]-thymidine, [3H]-uridine, [3H]-leucine ([4]; 1 × MIC): 20%
effect on incorporation of [3H]-thymidine, [3H]-uridine, [3H]-leucine ([4]; up to 0.75 × MIC): almost no effect
BCG pTIC6-fbpA MIC [3]: 25 µM
